Measured values as given in patent publication US10800791B2, “Triazole ACC inhibitors and uses thereof” (Gilead Apollo, LLC, priority 2015, dated 2020).
In brackets after ≈: the same amount, converted by molar mass. Where two headings read alike, the source gives them in different places.

Key:
[1] = target: human (hACC2) (Homo sapiens, UniProt O00763); assay: In vitro ACC inhibition assay (ADP-Glo), hACC2; format: biochemical; details: 5 nM ACC2, 20 μM ATP, 20 μM acetyl-CoA
Procedure: The detailed procedure is as follows. […] 10 μL ADP glo reagent was added. […] 20 μL kinase detection reagent was added.

[2] = tested on: C. albicans; assay: Antifungal Activity Assay (broth microtiter MIC), C. albicans; format: cell-based, Candida albicans; details: Candida albicans, ATCC90028, 48 h
Summary of the method: (§1)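 Colonies from 24 h Sabouraud dextrose agar plates (35° C) are suspended in RPMI 1640+MOPS and diluted to give 2.5×10^3 CFU/mL in the wells. Plates are set up per CLSI M27-A3. Visual MIC is recorded at 48 h.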

[3] = tested on: C. parapsilosis; assay: Antifungal Activity Assay (broth microtiter MIC), C. parapsilosis; format: cell-based, Candida parapsilosis; details: Lodderomyces parapsilosis, ATCC22019, 48 h
Summary of the method: as §1

[4] = tested on: Botrtyis cinerea (Bc); assay: Growth inhibition assay of fungal pathogens, Bc; format: cell-based; details: 48 h
Summary of the method: (§2)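 Spore suspension in 17% V8 liquid media; cpd final 50/10/2 or 2/0.4/0.08 ppm, 2% DMSO. OD600 + visual, 24 & 48 h; % inhibition at 48 h vs 2% DMSO ctrl.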

[5] = tested on: Collectotrichum graminicola (Cg); assay: Growth inhibition assay of fungal pathogens, Cg; format: cell-based; details: 48 h
Summary of the method: as §2

[6] = tested on: Diplodia maydis (Dm); assay: Growth inhibition assay of fungal pathogens, Dm; format: cell-based; details: Stenocarpella maydis, 48 h
Summary of the method: as §2

[7] = tested on: Phytophthora capsici (Pc); assay: Growth inhibition assay of fungal pathogens, Pc; format: cell-based; details: 48 h
Summary of the method: as §2

[8] = tested on: Rhizoctonia solani (Rs); assay: Growth inhibition assay of fungal pathogens, Rs; format: cell-based; details: 48 h
[9] = tested on: Septoria tritici (St); assay: Growth inhibition assay of fungal pathogens, St; format: cell-based; details: Zymoseptoria tritici, 48 h
Summary of the method: as §2

[10] = Table 3a, ATCC 90028, 3 replicates, MIC recorded at 48 h, read-out: MIC, C. albicans ATCC 90028
[11] = Table 3b (additional results), ATCC 90028, 3 replicates, MIC recorded at 48 h, read-out: MIC, C. albicans ATCC 90028
[12] = Table 3a, ATCC 22019, 3 replicates, MIC recorded at 48 h, read-out: MIC, C. parapsilosis ATCC 22019
[13] = Table 3b (additional results), ATCC 22019, 3 replicates, MIC recorded at 48 h, read-out: MIC, C. parapsilosis ATCC 22019
[14] = Botrtyis cinerea, growth inhibition at 48 hours vs 2% DMSO control, read-out: Concentration at 90% Inhibition Bc
[15] = Botrtyis cinerea, growth inhibition vs 2% DMSO control at 48 hours, read-out: Concentration at 90% Inhibition Bc
[16] = Collectotrichum graminicola, growth inhibition at 48 hours vs 2% DMSO control, read-out: Concentration at 90% Inhibition Cg
[17] = Collectotrichum graminicola, growth inhibition vs 2% DMSO control at 48 hours, read-out: Concentration at 90% Inhibition Cg
[18] = Diplodia maydis, growth inhibition at 48 hours vs 2% DMSO control, read-out: Concentration at 90% Inhibition Dm
[19] = Diplodia maydis, growth inhibition vs 2% DMSO control at 48 hours, read-out: Concentration at 90% Inhibition Dm
[20] = growth inhibition at 48 hours vs 2% DMSO control, read-out: Concentration at 90% Inhibition Pc
[21] = growth inhibition vs 2% DMSO control at 48 hours, read-out: Concentration at 90% Inhibition Pc
[22] = mycelial plugs, growth inhibition at 48 hours vs 2% DMSO control, read-out: Concentration at 90% Inhibition Rs
[23] = mycelial plugs, growth inhibition vs 2% DMSO control at 48 hours, read-out: Concentration at 90% Inhibition Rs
[24] = Septoria tritici, growth inhibition at 48 hours vs 2% DMSO control, read-out: Concentration at 90% Inhibition St
[25] = Septoria tritici, growth inhibition vs 2% DMSO control at 48 hours, read-out: Concentration at 90% Inhibition St

human (hACC2), sequence (O00763 whole entry): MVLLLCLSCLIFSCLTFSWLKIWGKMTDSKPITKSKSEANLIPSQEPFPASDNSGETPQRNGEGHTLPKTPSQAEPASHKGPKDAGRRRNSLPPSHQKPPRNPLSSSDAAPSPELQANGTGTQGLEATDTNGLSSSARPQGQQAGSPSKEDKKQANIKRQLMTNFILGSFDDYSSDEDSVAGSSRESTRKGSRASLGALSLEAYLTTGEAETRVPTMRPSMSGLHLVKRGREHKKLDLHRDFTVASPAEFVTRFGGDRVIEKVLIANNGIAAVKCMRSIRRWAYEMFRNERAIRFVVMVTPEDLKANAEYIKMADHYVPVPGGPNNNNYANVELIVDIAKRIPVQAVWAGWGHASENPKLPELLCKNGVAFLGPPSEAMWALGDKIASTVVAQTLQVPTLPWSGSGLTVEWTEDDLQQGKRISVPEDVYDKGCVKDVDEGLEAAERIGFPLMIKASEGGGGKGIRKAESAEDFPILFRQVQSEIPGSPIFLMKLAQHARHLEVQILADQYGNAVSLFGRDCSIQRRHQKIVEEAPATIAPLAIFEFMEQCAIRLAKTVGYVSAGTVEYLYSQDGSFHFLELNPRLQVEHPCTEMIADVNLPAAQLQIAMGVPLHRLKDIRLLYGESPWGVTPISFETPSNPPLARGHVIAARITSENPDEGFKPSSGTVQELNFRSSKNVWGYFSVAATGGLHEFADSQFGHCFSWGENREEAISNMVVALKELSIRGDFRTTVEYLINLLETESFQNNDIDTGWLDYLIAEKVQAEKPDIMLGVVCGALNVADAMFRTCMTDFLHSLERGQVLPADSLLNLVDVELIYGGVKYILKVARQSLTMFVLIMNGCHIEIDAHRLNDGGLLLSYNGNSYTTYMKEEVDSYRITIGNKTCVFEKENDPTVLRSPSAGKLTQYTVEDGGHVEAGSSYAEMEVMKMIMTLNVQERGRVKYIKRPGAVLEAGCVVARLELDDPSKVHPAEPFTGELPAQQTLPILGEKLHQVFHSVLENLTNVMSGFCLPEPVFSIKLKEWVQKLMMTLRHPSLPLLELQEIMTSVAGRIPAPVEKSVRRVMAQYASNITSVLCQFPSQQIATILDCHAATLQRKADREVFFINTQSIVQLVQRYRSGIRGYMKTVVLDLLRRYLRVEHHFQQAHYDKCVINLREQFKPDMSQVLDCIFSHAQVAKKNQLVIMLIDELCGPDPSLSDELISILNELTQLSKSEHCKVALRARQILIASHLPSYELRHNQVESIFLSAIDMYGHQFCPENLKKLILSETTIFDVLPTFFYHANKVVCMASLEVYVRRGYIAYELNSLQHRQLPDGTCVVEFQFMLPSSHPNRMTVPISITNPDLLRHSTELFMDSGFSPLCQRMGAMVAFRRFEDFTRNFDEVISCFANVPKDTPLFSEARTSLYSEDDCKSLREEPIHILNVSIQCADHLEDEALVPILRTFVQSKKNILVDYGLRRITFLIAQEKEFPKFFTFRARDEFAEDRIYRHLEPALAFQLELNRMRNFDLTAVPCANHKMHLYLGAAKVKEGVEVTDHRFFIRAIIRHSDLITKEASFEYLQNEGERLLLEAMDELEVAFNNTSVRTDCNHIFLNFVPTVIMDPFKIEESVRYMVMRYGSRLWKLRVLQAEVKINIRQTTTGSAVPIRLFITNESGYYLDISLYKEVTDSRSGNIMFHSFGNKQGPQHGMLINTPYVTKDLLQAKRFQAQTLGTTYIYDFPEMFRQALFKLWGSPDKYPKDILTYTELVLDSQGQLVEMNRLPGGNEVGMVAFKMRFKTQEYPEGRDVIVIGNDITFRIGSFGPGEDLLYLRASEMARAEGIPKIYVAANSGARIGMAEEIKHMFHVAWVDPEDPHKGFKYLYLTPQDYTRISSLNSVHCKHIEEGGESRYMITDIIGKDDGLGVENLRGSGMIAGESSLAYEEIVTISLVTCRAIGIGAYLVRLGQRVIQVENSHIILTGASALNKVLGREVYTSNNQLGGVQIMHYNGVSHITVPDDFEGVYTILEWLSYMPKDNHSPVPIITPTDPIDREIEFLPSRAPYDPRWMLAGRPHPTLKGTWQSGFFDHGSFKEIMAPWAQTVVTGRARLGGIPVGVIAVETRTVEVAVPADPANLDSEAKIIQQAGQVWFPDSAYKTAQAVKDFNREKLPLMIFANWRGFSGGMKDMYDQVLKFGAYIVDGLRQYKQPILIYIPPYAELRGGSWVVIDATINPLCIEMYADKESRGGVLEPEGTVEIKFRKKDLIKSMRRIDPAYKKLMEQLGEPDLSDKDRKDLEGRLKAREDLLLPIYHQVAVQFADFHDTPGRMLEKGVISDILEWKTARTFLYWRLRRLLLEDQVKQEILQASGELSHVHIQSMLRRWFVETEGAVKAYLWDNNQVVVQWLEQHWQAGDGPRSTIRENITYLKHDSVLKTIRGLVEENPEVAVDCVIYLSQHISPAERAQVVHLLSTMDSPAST

SMILES | IC50 ([1]; Table 2a) | IC50 ([1]; Table 2b, additional results) | MIC [2, 10] | MIC [2, 11] | MIC [3, 12] | MIC [3, 13] | IC90 [4, 14] | IC90 [4, 15] | IC90 [5, 16] | IC90 [5, 17] | IC90 [6, 18] | IC90 [6, 19] | IC90 [7, 20] | IC90 [7, 21] | IC90 [8, 22] | IC90 [8, 23] | IC90 [9, 24] | IC90 [9, 25] | further results
COc1ccc(F)cc1[C@H](Cn1c(=O)n(C(C)(C)C(N)=O)c(=O)c2c(C)c(-n3nccn3)sc21)OCC(C)C [Compound I-8, (R)-2-(1-(2-(5-fluoro-2-methoxyphenyl)-2-isobutoxyethyl)-5-methyl-2,4-dioxo-6-(2H-1,2,3-triazol-2-yl)-1,4-dihydrothieno[2,3-d]pyrimidin-3(2H)-yl)-2-methylpropanamide] | 5 to 10 nM | 5 to 10 nM | 1.1 to 2 µg/mL (≈ 1.97 to 3.58 µM) | 1.01 to 2 µg/mL (≈ 1.81 to 3.58 µM) | 2.1 to 4 µg/mL (≈ 3.76 to 7.16 µM) | 2.01 to 4 µg/mL (≈ 3.6 to 7.16 µM) | 2 µg/mL (≈ 3.58 µM) | 2 µg/mL (≈ 3.58 µM) | 2 µg/mL (≈ 3.58 µM) | 2 µg/mL (≈ 3.58 µM) | 2 µg/mL (≈ 3.58 µM) | 2 µg/mL (≈ 3.58 µM) | > 50 µg/mL | > 50 µg/mL | 2 µg/mL (≈ 3.58 µM) | 2 µg/mL (≈ 3.58 µM) | > 50 µg/mL | > 50 µg/mL | –
CCNC(=O)C(C)(C)n1c(=O)c2c(C)c(-n3nccn3)sc2n(C[C@H](OCC(C)C)c2cc(F)ccc2OC)c1=O [Compound I-9, (R)—N-ethyl-2-(1-(2-(5-fluoro-2-methoxyphenyl)-2-isobutoxyethyl)-5-methyl-2,4-dioxo-6-(2H-1,2,3-triazol-2-yl)-1,4-dihydrothieno[2,3-d]pyrimidin-3(2H)-yl)-2-methylpropanamide] | 5 to 10 nM | 1 to 5 nM | 2.1 to 4 µg/mL (≈ 3.58 to 6.82 µM) | 1.01 to 2 µg/mL (≈ 1.72 to 3.41 µM) | 2.1 to 4 µg/mL (≈ 3.58 to 6.82 µM) | 1.01 to 2 µg/mL (≈ 1.72 to 3.41 µM) | 0.4 µg/mL (≈ 0.682 µM) | 0.4 µg/mL (≈ 0.682 µM) | 0.4 µg/mL (≈ 0.682 µM) | 0.4 µg/mL (≈ 0.682 µM) | 0.4 µg/mL (≈ 0.682 µM) | 0.4 µg/mL (≈ 0.682 µM) | > 50 µg/mL | > 50 µg/mL | 0.4 µg/mL (≈ 0.682 µM) | 0.4 µg/mL (≈ 0.682 µM) | 10 µg/mL (≈ 17 µM) | > 50 µg/mL | –
COc1ccc(F)cc1[C@H](Cn1c(=O)n(C(C)(C)C(=O)N2CCCCC2)c(=O)c2c(C)c(-n3nccn3)sc21)OCC(C)C [Compound I-11, (R)-1-(2-(5-fluoro-2-methoxyphenyl)-2-isobutoxyethyl)-5-methyl-3-(2-methyl-1-oxo-1-(piperidin-1-yl)propan-2-yl)-6-(2H-1,2,3-triazol-2-yl)thieno[2,3-d]pyrimidine-2,4(1H,3H)-dione] | 10 to 40 nM | 10 to 40 nM | – | – | – | – | – | – | – | – | – | – | – | – | – | – | – | – | MIC ([2]; read-out: MIC, C. albicans ATCC 90028, Table 3a, 3 replicates, MIC recorded at 48 h): 1.1 to 2 µg/mL (≈ 1.76 to 3.19 µM); MIC ([2]; read-out: MIC, C. albicans ATCC 90028, Table 3b (additional results), 3 replicates, MIC recorded at 48 h): 0.25 to 1 µg/mL (≈ 0.399 to 1.6 µM); MIC ([3]; read-out: MIC, C. parapsilosis ATCC 22019, Table 3a, 3 replicates, MIC recorded at 48 h): 1.1 to 2 µg/mL (≈ 1.76 to 3.19 µM); MIC ([3]; read-out: MIC, C. parapsilosis ATCC 22019, Table 3b (additional results), 3 replicates, MIC recorded at 48 h): 1.01 to 2 µg/mL (≈ 1.61 to 3.19 µM); IC90 ([4]; read-out: Concentration at 90% Inhibition Bc, Botrtyis cinerea, growth inhibition at 48 hours vs 2% DMSO control): 0.4 µg/mL (≈ 0.638 µM); IC90 ([4]; read-out: Concentration at 90% Inhibition Bc, Botrtyis cinerea, growth inhibition vs 2% DMSO control at 48 hours): 0.4 µg/mL (≈ 0.638 µM); IC90 ([5]; read-out: Concentration at 90% Inhibition Cg, Collectotrichum graminicola, growth inhibition at 48 hours vs 2% DMSO control): 0.4 µg/mL (≈ 0.638 µM); IC90 ([5]; read-out: Concentration at 90% Inhibition Cg, Collectotrichum graminicola, growth inhibition vs 2% DMSO control at 48 hours): 0.4 µg/mL (≈ 0.638 µM); IC90 ([6]; read-out: Concentration at 90% Inhibition Dm, Diplodia maydis, growth inhibition at 48 hours vs 2% DMSO control): 0.4 µg/mL (≈ 0.638 µM); IC90 ([6]; read-out: Concentration at 90% Inhibition Dm, Diplodia maydis, growth inhibition vs 2% DMSO control at 48 hours): 0.4 µg/mL (≈ 0.638 µM); IC90 ([7]; read-out: Concentration at 90% Inhibition Pc, Phytophthora capsici, growth inhibition at 48 hours vs 2% DMSO control): > 50 µg/mL; IC90 ([7]; read-out: Concentration at 90% Inhibition Pc, Phytophthora capsici, growth inhibition vs 2% DMSO control at 48 hours): > 50 µg/mL; IC90 ([8]; read-out: Concentration at 90% Inhibition Rs, Rhizoctonia solani, mycelial plugs, growth inhibition at 48 hours vs 2% DMSO control): 0.4 µg/mL (≈ 0.638 µM); IC90 ([8]; read-out: Concentration at 90% Inhibition Rs, Rhizoctonia solani, mycelial plugs, growth inhibition vs 2% DMSO control at 48 hours): 0.4 µg/mL (≈ 0.638 µM); IC90 ([9]; read-out: Concentration at 90% Inhibition St, Septoria tritici, growth inhibition at 48 hours vs 2% DMSO control): 10 µg/mL (≈ 16 µM); IC90 ([9]; read-out: Concentration at 90% Inhibition St, Septoria tritici, growth inhibition vs 2% DMSO control at 48 hours): > 50 µg/mL
COc1ccc(F)cc1[C@H](Cn1c(=O)n(C(C)(C)C(=O)N2CCCC2)c(=O)c2c(C)c(-n3nccn3)sc21)OCC(C)C [Compound I-12, (R)-1-(2-(5-fluoro-2-methoxyphenyl)-2-isobutoxyethyl)-5-methyl-3-(2-methyl-1-oxo-1-(pyrrolidin-1-yl)propan-2-yl)-6-(2H-1,2,3-triazol-2-yl)thieno[2,3-d]pyrimidine-2,4(1H,3H)-dione] | 10 to 40 nM | 10 to 40 nM | 1.1 to 2 µg/mL (≈ 1.8 to 3.26 µM) | 0.25 to 1 µg/mL (≈ 0.408 to 1.63 µM) | 2.1 to 4 µg/mL (≈ 3.43 to 6.53 µM) | 1.01 to 2 µg/mL (≈ 1.65 to 3.26 µM) | 0.4 µg/mL (≈ 0.653 µM) | 0.4 µg/mL (≈ 0.653 µM) | 0.08 µg/mL (≈ 0.131 µM) | 0.08 µg/mL (≈ 0.131 µM) | 0.08 µg/mL (≈ 0.131 µM) | 0.08 µg/mL (≈ 0.131 µM) | > 50 µg/mL | > 50 µg/mL | 0.08 µg/mL (≈ 0.131 µM) | 0.08 µg/mL (≈ 0.131 µM) | 2 µg/mL (≈ 3.26 µM) | 10 µg/mL (≈ 16.3 µM) | –
COc1ccccc1[C@H](Cn1c(=O)n(C(C)(C)C(N)=O)c(=O)c2c(C)c(-n3nccn3)sc21)OC1CCOCC1 [Compound I-14, (R)-2-(1-(2-(2-methoxyphenyl)-2-((tetrahydro-2H-pyran-4-yl)oxy)ethyl)-5-methyl-2,4-dioxo-6-(2H-1,2,3-triazol-2-yl)-1,4-dihydrothieno[2,3-d]pyrimidin-3(2H)-yl)-2-methylpropanamide] | 1 to 5 nM | 1 to 5 nM | 0.25 to 1 µg/mL (≈ 0.44 to 1.76 µM) | 0.25 to 1 µg/mL (≈ 0.44 to 1.76 µM) | 1.1 to 2 µg/mL (≈ 1.93 to 3.52 µM) | 2.01 to 4 µg/mL (≈ 3.53 to 7.03 µM) | 2 µg/mL (≈ 3.52 µM) | 2 µg/mL (≈ 3.52 µM) | 10 µg/mL (≈ 17.6 µM) | > 50 µg/mL | 10 µg/mL (≈ 17.6 µM) | > 50 µg/mL | > 50 µg/mL | > 50 µg/mL | 10 µg/mL (≈ 17.6 µM) | > 50 µg/mL | > 50 µg/mL | > 50 µg/mL | –
